Measurements from patent publication US4393228A, “Epoxysuccinic acid derivatives” (Taisho Pharmaceutical Co., Ltd., priority 1977, dated 1983).
Like-named read-outs stand apart in the source and are kept apart here.

How the values were obtained:
papain = molecular target: T1, papain (Carica papaya, UniProt P00784); assay: Papain inhibitory activity (milk casein digestion); format: biochemical; settings: papain 80 μg/ml 0.5 ml, cysteine, pH 6.8, 1% milk casein, 40° C., 10 minutes
T1 construct: purchased Sigma Chem. Co
T1 sequence (P00784 134-345): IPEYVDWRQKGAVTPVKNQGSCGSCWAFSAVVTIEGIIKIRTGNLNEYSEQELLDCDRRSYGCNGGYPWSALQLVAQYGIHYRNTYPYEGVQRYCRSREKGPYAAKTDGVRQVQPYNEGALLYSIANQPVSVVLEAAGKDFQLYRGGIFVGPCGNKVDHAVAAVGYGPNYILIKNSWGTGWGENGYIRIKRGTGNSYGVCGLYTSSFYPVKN
In short: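 Papain (80 μg/ml stock) preincubated 15 min at 40 °C with inhibitor, cysteine/EDTA activator and phosphate buffer pH 6.8. Then 1% milk casein digested 10 min at 40 °C, stopped with trichloroacetic acid and filtered; filtrate absorbance at 280 nm gives percent inhibition versus no-inhibitor control.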

[1] = system: adjuvant induced polyarthritis; assay: Inhibition of adjuvant induced polyarthritis in rats (hind paw volume); format: in vivo, Sprague Dawley rat; settings: Rattus norvegicus
Procedure: Effect of the compounds of this invention on the development of adjuvant-induced polyarthritis in rats was assayed as follows: Adjuvant arthritis was produced by a single intracutaneous injection of 0.1 ml of the adjuvant mixture containing heat-killed mycobacteria of the human Aoyama B strain suspended in liquid paraffin in 0.6% in the middle part of the distal tail of Sprague Dawley rat (female, 8 weeks old). […] The activity was measured as the mean inhibition percent for the increase of the hind paw volume of the 8 rats/group on the days 17 and 23 on which the legs become inflamed and reach maximum volumes. The compound Nos. in Table 2 are as defined in Examples as described hereinafter.

[2] = prior art compound; cited from earlier work
thiol proteases = settings: U.S. Pat. No. 3,911,111; cited from earlier work
[3] = U.S. Pat. No. 3,911,111; cited from earlier work
[4] = 408 h, 100 mg/kg of body weight, daily oral, day 17, read-out: Inhibition % 17 days (increase of hind paw volume)
[5] = 552 h, 100 mg/kg of body weight, daily oral, day 23, read-out: Inhibition % 23 days (increase of hind paw volume)
[6] = po, 408 h, read-out: Inhibition % 17 days (increase of hind paw volume)
[7] = po, 552 h, read-out: Inhibition % 23 days (increase of hind paw volume)

Compound | ID50 (amount of inhibitor for 50% inhibition) (papain) | inhibition in vivo at 100 mg/kg [1, 4] [%] | inhibition in vivo at 100 mg/kg [1, 5] [%] | further results
O=C(O)[C@H]1O[C@@H]1C(=O)OCc1ccccc1 (relative stereo) [EP-143, benzyl potassium epoxysuccinate] | 0.15 γ | 45.1 | 35.6 | –
O=C([O-])C1OC1C(=O)N[C@@H](Cc1ccccc1)C(=O)[O-].[K+].[K+] (stereo partly drawn) [EP-175, N-(3-carboxyoxirane-2-carbonyl)-L-phenylalanine dipotassium salt] | 1.90 γ | – | – | inhibition in vivo at 100 mg/kg [1, 6]: 32%; inhibition in vivo at 100 mg/kg [1, 7]: 31.5%
COc1ccc(COC(=O)[C@@H]2O[C@H]2C(=O)O)cc1 (relative stereo) [EP-102, p-methoxybenzyl potassium epoxysuccinate] | 0.36 γ | 28 | 31 | –
O=C(O)[C@@H]1O[C@H]1C(=O)OC1CCCC1 (relative stereo) [EP-26, cyclopentyl potassium epoxysuccinate] | 0.08 γ | 52 | 55.5 | –
O=C(OC1CCCCC1)[C@@H]1O[C@H]1C(=O)OC1CCCCC1 (relative stereo) [EP-1, dicyclohexyl epoxysuccinate] | 1.98 γ | 82.1 | 77 | –
CC(C)C[C@H](NC(=O)[C@H]1O[C@@H]1C(=O)O)C(=O)NCCCCN=C(N)N [E-64] | – | – | – | acceleration of vascular permeability (side effect) [2]: acceleration of vascular permeability; thiol protease inhibitory activity (thiol proteases): possessing thiol protease inhibitory activity; anti-inflammatory activity [3]: anti-inflammatory activity
O=C(OC1CCCC1)[C@@H]1O[C@H]1C(=O)OC1CCCC1 (relative stereo) [EP-25, dicyclopentyl epoxysuccinate] | 3.03 γ | 52.6 | 77.8 | –
CCOC(=O)[C@H]1O[C@@H]1C(=O)O (relative stereo) [EP-137, ethyl potassium epoxysuccinate] | 2.08 γ | 40 | 38.5 | –
O=C(OCCCc1ccccc1)[C@H]1O[C@@H]1C(=O)OCCCc1ccccc1 (relative stereo) [EP-131, di-3'-phenylpropyl epoxysuccinate] | 11.36 γ | 57.1 | 49.2 | –
O=C(OCC1CCCO1)[C@@H]1O[C@H]1C(=O)OCC1CCCO1 (relative stereo) [EP-75, di-tetrahydro-2-furanmethyl epoxysuccinate] | 1.65 γ | 89.6 | 41 | –
O=C(OCc1cccc(F)c1)[C@H]1O[C@@H]1C(=O)OCc1cccc(F)c1 (relative stereo) [EP-121, di-m-fluorobenzyl epoxysuccinate] | 0.46 γ | 53.6 | 38.9 | –
CCCCCOC(=O)[C@H]1O[C@@H]1C(=O)O (relative stereo) [EP-144, n-amyl potassium epoxysuccinate] | 0.34 γ | 33.3 | 32.1 | –
CC(C)C[C@H](NC(=O)C1OC1C(=O)[O-])C(=O)[O-].[K+].[K+] (stereo partly drawn) [EP-174, N-(3-carboxyoxirane-2-carbonyl)-L-leucine dipotassium salt] | 0.20 γ | – | – | inhibition in vivo at 100 mg/kg [1, 6]: 30.5%; inhibition in vivo at 100 mg/kg [1, 7]: 29%
O=C(O)[C@H]1O[C@@H]1C(=O)OCc1ccc(Cl)cc1 (relative stereo) [EP-116, p-chlorobenzyl potassium epoxysuccinate] | 0.32 γ | 35 | 33.5 | –
O=C(O)[C@@H]1O[C@H]1C(=O)OC1CCCCC1 (relative stereo) [EP-2, cyclohexyl potassium epoxysuccinate] | 0.07 γ | 43.2 | 50 | –
O=C(OCc1cccc2ccccc12)[C@@H]1O[C@H]1C(=O)OCc1cccc2ccccc12 (relative stereo) [EP-81, di-1'-naphthylmethyl epoxysuccinate] | 1.30 γ | 64.3 | 83.6 | –

Compound | ID50 (amount of inhibitor for 50% inhibition) (papain) | inhibition in vivo at 100 mg/kg [1, 4] [%] | inhibition in vivo at 100 mg/kg [1, 5] [%] | further results
O=C(OCc1cccs1)[C@@H]1O[C@H]1C(=O)OCc1cccs1 (relative stereo) [EP-79, di-2-thenyl epoxysuccinate] | 0.75 γ | 64.3 | 90.2 | –
O=C(OCC1CC=CCC1)C1OC1C(=O)OCC1CC=CCC1 (stereo not shown) [EP-69, di-3-cyclohexenemethyl epoxysuccinate] | 0.23 γ | – | – | –
CCOC(=O)C1OC1C(=O)N[C@@H](CC(C)C)C(N)=O (stereo partly drawn) [EP-167, N-(3-ethoxycarbonyloxirane-2-carbonyl)-L-leucine amide] | 0.50 γ | – | – | –
O=C(O)[C@@H]1O[C@H]1C(=O)OCc1cccc2ccccc12 (relative stereo) [EP-82, 1'-naphthylmethyl potassium epoxysuccinate] | 0.34 γ | – | – | –
O=C(OCc1c(Cl)ccc2ccccc12)[C@@H]1O[C@H]1C(=O)OCc1c(Cl)ccc2ccccc12 (relative stereo) [EP-83, di-2'-chloro-1'-naphthylmethyl epoxysuccinate] | 1.55 γ | – | – | –
COC(=O)[C@H](CCSC)NC(=O)C1OC1C(=O)OCc1ccc2c(c1)OCO2 (stereo partly drawn) [EP-149, N-(3-piperonyloxycarbonyloxirane-2-carbonyl)-L-methionene methyl ester] | 0.70 γ | – | – | –
C[C@H]1CC[C@H](OC(=O)[C@@H]2O[C@H]2C(=O)O[C@H]2CC[C@H](C)CC2)CC1 (relative stereo) [EP-15, di-4'-trans-methylcyclohexyl epoxysuccinate] | 1.69 γ | – | – | –
O=C(OCc1cccc(C(F)(F)F)c1)[C@@H]1O[C@H]1C(=O)OCc1cccc(C(F)(F)F)c1 (relative stereo) [EP-99, di-3'-trifluoromethylbenzyl epoxysuccinate] | 0.50 γ | – | – | –
O=C(OCc1cc(Cl)ccc1Cl)[C@H]1O[C@@H]1C(=O)OCc1cc(Cl)ccc1Cl (relative stereo) [EP-127, di-2',5'-dichlorobenzyl epoxysuccinate] | 2.00 γ | – | – | –
CCOC(=O)C1OC1C(=O)N[C@@H](CCCCNC(=O)OC(C)(C)C)C(=O)OCc1ccccc1 (stereo partly drawn) [EP-170, N^α -(3-ethoxycarbonyloxirane-2-carbonyl)-N^ε -t-butyloxycarbonyl-L-lysine benzyl ester] | 27.50 γ | – | – | –
CC(C)OC(=O)[C@H]1O[C@@H]1C(=O)O (relative stereo) [EP-139, i-propyl potassium epoxysuccinate] | 0.78 γ | – | – | –
C[C@H]1CC[C@@H](OC(=O)[C@@H]2O[C@H]2C(=O)O[C@H]2CC[C@@H](C)CC2)CC1 (relative stereo) [EP-17, di-4'-cis-methylcyclohexyl epoxysuccinate] | 1.79 γ | 100 | 78.7 | –
Cc1cccc2c(COC(=O)[C@@H]3O[C@H]3C(=O)O)ccc(C)c12 (relative stereo) [EP-88, 4',5'-dimethyl-1'-naphthylmethyl potassium epoxysuccinate] | 0.32 γ | – | – | –
CCOC(=O)[C@H](CC(C)C)NC(=O)C1OC1C(=O)OCCCC1CCCC1 (stereo partly drawn) [EP-203, N-[3-(3'-cyclopentylpropyloxy)carbonyloxirane-2-carbonyl]-L-leucine ethyl ester] | 0.12 γ | – | – | –
CCOC(=O)[C@@H](NC(=O)C1OC1C(=O)OC)[C@@H](C)O (stereo partly drawn) [EP-190, N-(3-methoxycarbonyloxirane-2-carbonyl)-L-threonine ethyl ester] | 17.13 γ | – | – | –
